Source: EP0025288A1, “Derivatives of monic acid, processes for their preparation, compositions containing them and their preparation” (priority 1979, dated 1981)
Converted amounts (≈) assume the structure as drawn.

Experiments:
Format in all cases: cell-based
Past multocida PA2 = assay: MIC, veterinary bacteria; conditions: veterinary bacteria (Table 2), read-out: MIC
[1] = test system: Erysipelothrix rhusiopathiae NCTC 8163; assay: MIC, veterinary bacteria; conditions: NCTC8163, veterinary bacteria (Table 2), read-out: MIC
S typhimurium S18 = assay: MIC, veterinary bacteria; conditions: veterinary bacteria (Table 2), read-out: MIC
[2] = test system: Corynebacterium pyogenes CY1; assay: MIC, veterinary bacteria; conditions: veterinary bacteria (Table 2), read-out: MIC
[3] = test system: M. suipneumoniae PW/C/210; assay: MIC, anti-mycoplasmal, Friis broth solidified with 0.9% agarose; conditions: Mesomycoplasma hyopneumoniae, 144 h, inoculum 10^3 to 10^5 C.F.U., 6 days incubation at 37°C, read-out: in vitro MIC
Strep dysgalaciae SPD1 = assay: MIC, veterinary bacteria; conditions: veterinary bacteria (Table 2), read-out: MIC
M. gallisepticum S6 = assay: MIC, anti-mycoplasmal, Friis broth solidified with 0.9% agarose; conditions: Mycoplasmoides gallisepticum, 144 h, inoculum 10^3 to 10^5 C.F.U., 6 days incubation at 37°C, read-out: in vitro MIC
Past multocida PA1 = assay: MIC, veterinary bacteria; conditions: veterinary bacteria (Table 2), read-out: MIC
[4] = test system: M. suipneumoniae J2206/183b; assay: MIC, anti-mycoplasmal, Friis broth solidified with 0.9% agarose; conditions: Mesomycoplasma hyopneumoniae, 144 h, inoculum 10^3 to 10^5 C.F.U., 6 days incubation at 37°C, read-out: in vitro MIC
M. pneumoniae ATCC 15492 = assay: as above; conditions: Mycoplasmoides pneumoniae, ATCC15492, 144 h, inoculum 10^3 to 10^5 C.F.U., 6 days incubation at 37°C, read-out: in vitro MIC
M. bovis NCTC 10131 = assay: microbe, parasite or virus in culture; conditions: NCTC10131, 144 h, read-out: in vitro MIC
M. suipneumoniae NB12 = assay: MIC, anti-mycoplasmal, Friis broth solidified with 0.9% agarose; conditions: Mesomycoplasma hyopneumoniae, 144 h, inoculum 10^3 to 10^5 C.F.U., 6 days incubation at 37°C, read-out: in vitro MIC
Past Haemolytica PA5 = assay: MIC, veterinary bacteria; conditions: veterinary bacteria (Table 2), read-out: MIC
[5] = test system: M. suipneumoniae ATCC 25095; assay: MIC, anti-mycoplasmal, Friis broth solidified with 0.9% agarose; conditions: Mesomycoplasma hyopneumoniae, ATCC25095, 144 h, inoculum 10^3 to 10^5 C.F.U., 6 days incubation at 37°C, read-out: in vitro MIC
M. suipneumoniae LABER = assay: as above; conditions: Mesomycoplasma hyopneumoniae, 144 h, inoculum 10^3 to 10^5 C.F.U., 6 days incubation at 37°C, read-out: in vitro MIC
E coli NCTC 10418 = assay: MIC, veterinary bacteria; conditions: veterinary bacteria (Table 2), read-out: MIC
Bord bronchiseptica BO8 = assay: MIC, veterinary bacteria; conditions: veterinary bacteria (Table 2), read-out: MIC
[6] = test system: Staph aureus 152 (pen sens); assay: MIC, veterinary bacteria; conditions: Staphylococcus aureus, veterinary bacteria (Table 2), read-out: MIC
Bord bronchisptica BO9 = assay: MIC, veterinary bacteria; conditions: veterinary bacteria (Table 2), read-out: MIC
S dublin S7 = assay: MIC, veterinary bacteria; conditions: veterinary bacteria (Table 2), read-out: MIC
Strep agalactiae SPA1 = assay: MIC, veterinary bacteria; conditions: veterinary bacteria (Table 2), read-out: MIC
M. hyorhinis ATCC 25021 = assay: MIC, anti-mycoplasmal, Friis broth solidified with 0.9% agarose; conditions: Mesomycoplasma hyorhinis, ATCC25021, 144 h, inoculum 10^3 to 10^5 C.F.U., 6 days incubation at 37°C, read-out: in vitro MIC
[7] = test system: M. bovigenitalium ATCC 14173; assay: as above; conditions: 144 h, inoculum 10^3 to 10^5 C.F.U., 6 days incubation at 37°C, read-out: in vitro MIC
Staph aureus Oxford = assay: MIC, veterinary bacteria; conditions: Staphylococcus aureus, veterinary bacteria (Table 2), read-out: MIC
E coli E1 = assay: MIC, veterinary bacteria; conditions: veterinary bacteria (Table 2), read-out: MIC
[8] = test system: Strep suis (group D) SPS11; assay: MIC, veterinary bacteria; conditions: veterinary bacteria (Table 2), read-out: MIC
M. suipneumoniae Str. 11 = assay: MIC, anti-mycoplasmal, Friis broth solidified with 0.9% agarose; conditions: Mesomycoplasma hyopneumoniae, 144 h, inoculum 10^3 to 10^5 C.F.U., 6 days incubation at 37°C, read-out: in vitro MIC
M. dispar NCTC 10125 = assay: as above; conditions: 144 h, inoculum 10^3 to 10^5 C.F.U., 6 days incubation at 37°C, read-out: in vitro MIC
[9] = test system: M. suipneumoniae NCTC 10110; assay: as above; conditions: Mesomycoplasma hyopneumoniae, NCTC10110, 144 h, inoculum 10^3 to 10^5 C.F.U., 6 days incubation at 37°C, read-out: in vitro MIC
[10] = test system: Staph aureus B4 (pen resis); assay: MIC, veterinary bacteria; conditions: Staphylococcus aureus, veterinary bacteria (Table 2), read-out: MIC
[11] = test system: M. hyosynoviae ATCC 25591; assay: MIC, anti-mycoplasmal, Friis broth solidified with 0.9% agarose; conditions: 144 h, inoculum 10^3 to 10^5 C.F.U., 6 days incubation at 37°C, read-out: in vitro MIC
Strep uberis SPU1 = assay: MIC, veterinary bacteria; conditions: veterinary bacteria (Table 2), read-out: MIC
M. suipneumoniae UCD 1 = assay: MIC, anti-mycoplasmal, Friis broth solidified with 0.9% agarose; conditions: Mesomycoplasma hyopneumoniae, UCD1, 144 h, inoculum 10^3 to 10^5 C.F.U., 6 days incubation at 37°C, read-out: in vitro MIC
M. suipneumoniae HK(2) = assay: as above; conditions: Mesomycoplasma hyopneumoniae, 144 h, inoculum 10^3 to 10^5 C.F.U., 6 days incubation at 37°C, read-out: in vitro MIC
M. suipneumoniae MS 16 = assay: as above; conditions: Mesomycoplasma hyopneumoniae, MS16, 144 h, inoculum 10^3 to 10^5 C.F.U., 6 days incubation at 37°C, read-out: in vitro MIC
M. suipneumoniae TAM 6N = assay: as above; conditions: Mesomycoplasma hyopneumoniae, TAM6N, 144 h, inoculum 10^3 to 10^5 C.F.U., 6 days incubation at 37°C, read-out: in vitro MIC
M. suipneumoniae JF 435 = assay: as above; conditions: Mesomycoplasma hyopneumoniae, JF435, 144 h, inoculum 10^3 to 10^5 C.F.U., 6 days incubation at 37°C, read-out: in vitro MIC
M. hyorhinis ATCC 23234 = assay: as above; conditions: Mesomycoplasma hyorhinis, ATCC23234, 144 h, inoculum 10^3 to 10^5 C.F.U., 6 days incubation at 37°C, read-out: in vitro MIC

## CC(=CC(=O)OC1CCCC(=O)CCC1)CC1OCC(CC2OC2C(C)C(C)O)C(O)C1O (centres unmarked) [Example 10, Cyclooctan-5-onyl monate A]
Past multocida PA2
  MIC: 1.25 µg/mL (≈ 2.67 µM)
[1]
  MIC: 80 µg/mL (≈ 171 µM)
S typhimurium S18
  MIC: > 80 µg/mL
[2]
  MIC: 80 µg/mL (≈ 171 µM)
[3]
  MIC: 1 µg/mL (≈ 2.13 µM)
Strep dysgalaciae SPD1
  MIC: 5 µg/mL (≈ 10.7 µM)
M. gallisepticum S6
  MIC: > 10 µg/mL
Past multocida PA1
  MIC: 40 µg/mL (≈ 85.4 µM)
[4]
  MIC: 2.5 µg/mL (≈ 5.34 µM)
M. pneumoniae ATCC 15492
  MIC: 10 µg/mL (≈ 21.3 µM)
M. bovis NCTC 10131
  MIC: 0.025 µg/mL (≈ 0.0534 µM)
M. suipneumoniae NB12
  MIC: 2.5 µg/mL (≈ 5.34 µM)
Past Haemolytica PA5
  MIC: 40 µg/mL (≈ 85.4 µM)
[5]
  MIC: 1 µg/mL (≈ 2.13 µM)
M. suipneumoniae LABER
  MIC: 1 µg/mL (≈ 2.13 µM)
E coli NCTC 10418
  MIC: > 80 µg/mL
Bord bronchiseptica BO8
  MIC: > 80 µg/mL
[6]
  MIC: 2.5 µg/mL (≈ 5.34 µM)
Bord bronchisptica BO9
  MIC: 80 µg/mL (≈ 171 µM)
S dublin S7
  MIC: > 80 µg/mL
Strep agalactiae SPA1
  MIC: 10 µg/mL (≈ 21.3 µM)
M. hyorhinis ATCC 25021
  MIC: 1 µg/mL (≈ 2.13 µM)
[7]
  MIC: 0.05 µg/mL (≈ 0.107 µM)
Staph aureus Oxford
  MIC: 2.5 µg/mL (≈ 5.34 µM)
E coli E1
  MIC: > 80 µg/mL
[8]
  MIC: 80 µg/mL (≈ 171 µM)
M. suipneumoniae Str. 11
  MIC: 1 µg/mL (≈ 2.13 µM)
M. dispar NCTC 10125
  MIC: 0.5 µg/mL (≈ 1.07 µM)
[9]
  MIC: 1 µg/mL (≈ 2.13 µM)
[10]
  MIC: 2.5 µg/mL (≈ 5.34 µM)
[11]
  MIC: 0.25 µg/mL (≈ 0.534 µM)
Strep uberis SPU1
  MIC: 1.25 µg/mL (≈ 2.67 µM)
M. suipneumoniae UCD 1
  MIC: 1 µg/mL (≈ 2.13 µM)
M. suipneumoniae HK(2)
  MIC: 2.5 µg/mL (≈ 5.34 µM)
M. suipneumoniae MS 16
  MIC: 1 µg/mL (≈ 2.13 µM)
M. suipneumoniae TAM 6N
  MIC: 2.5 µg/mL (≈ 5.34 µM)
M. suipneumoniae JF 435
  MIC: 2.5 µg/mL (≈ 5.34 µM)
M. hyorhinis ATCC 23234
  MIC: 1 µg/mL (≈ 2.13 µM)
